Experiments:
Renilla luciferase = biological target: T1, Renilla luciferase (Renilla reniformis, UniProt P27652); test: Substrate specificity, luminescence activity and emission spectra of Renilla luciferase; format: biochemical; details: for Maximum emission wavelength λmax (nm) / Luminescence activity Imax (%) / Luminescence capacity 10 secs. (%): Renilla luciferase; for Maximum emission wavelength λmax (nm): 22 to 25° C.; for Luminescence activity Imax (%) / Luminescence capacity 10 secs. (%): coelenterazine = 100.0; for Ability to act as substrate for Renilla luciferase: TABLE 4
T1 construct: made in house
T1 sequence (P27652 1-311): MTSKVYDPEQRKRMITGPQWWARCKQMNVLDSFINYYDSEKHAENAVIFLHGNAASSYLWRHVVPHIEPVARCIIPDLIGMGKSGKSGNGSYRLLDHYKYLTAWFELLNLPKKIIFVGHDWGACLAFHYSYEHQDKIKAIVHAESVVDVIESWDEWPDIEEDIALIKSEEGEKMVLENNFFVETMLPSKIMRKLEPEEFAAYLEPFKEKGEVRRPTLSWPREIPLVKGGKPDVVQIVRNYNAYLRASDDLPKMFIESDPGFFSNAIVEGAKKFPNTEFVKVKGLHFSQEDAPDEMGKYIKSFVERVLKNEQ
Excerpt: Res. Commun. (1997) 233: 349-353, which was provided for use.

recombinant apoaequorin [1] = biological target: T2, recombinant apoaequorin (Aequorea victoria, UniProt P07164); test: Calcium standard curve with semi-synthetic aequorins; format: biochemical; design: purchased Chisso Corporation; details: Imax versus 10^-3 M to 10^-8 M calcium
Experimental: The dilution series was prepared by the serial process above to prepare standard calcium solution of 10^−3 M to 10^−8 M.
The semi-synthetic aequorin obtained was concentrated using Amicon Ultra-4 (manufactured by Millipore, molecular weight cut off, 10.000).
This semi-synthetic aequorin solution (2.5 mg/ml) was diluted with 20 mM Tris-HCl (pH 7.6) containing 0.1% BSA (manufactured by Sigma), 0.01 mM EDTA and 150 mM NaCl.
The calcium standard solution prepared as described above was dispensed into a 96-well microplate (Nunc #236108) in 50 μl/well, and the semi-synthetic aequorin solution diluted was injected in […]. The luminescence intensity was measured for 60 seconds using a luminescence plate reader Centro LB960 (manufactured by Berthold) and expressed in terms of the maximum luminescence intensity (Imax). The luminescence intensity was measured for each semi-synthetic aequorin in the same fashion. Based on the maximum luminescence intensity (Imax) obtained, the calcium standard curve for each semi-synthetic aequorin was prepared.

[2] = biological target: T3, 19 kDa protein of Oplophorus luciferase (Oplophorus gracilirostris, UniProt Q9GV45); test: Substrate specificity, luminescence activity and emission spectra of the 19 kDa protein of Oplophorus luciferase; format: biochemical, Oplophorus gracilorostris; details: for Maximum emission wavelength λmax (nm) / Luminescence capacity 10 secs. (%) / Luminescence activity Imax (%): Oplophorus luciferase; for Maximum emission wavelength λmax (nm): 22 to 25° C.; for Luminescence capacity 10 secs. (%): emission integrated for 10 seconds; for Luminescence capacity 10 secs. (%) / Luminescence activity Imax (%): coelenterazine = 100.0; for Quality as luminescence substrate for Oplophorus luciferase: TABLE 2
T3 construct: made in house

Gaussia luciferase = test: Substrate specificity, luminescence activity and emission spectra of Gaussia luciferase; details: for Luminescence activity Imax (%) / Luminescence capacity 10 secs. (%): Gaussia luciferase, coelenterazine = 100.0
Experimental: The luminescence activity was measured for 10 seconds using a luminometer Luminescencer-PSN AB2200 (manufactured by Atto Co., Ltd.). The luminescence activity was measured 3 times and expressed as the maximum intensity (Imax) of luminescence.

recombinant apoaequorin [3] = biological target: T2, recombinant apoaequorin; test: Luminescence patterns and half decay time of semi-synthetic aequorins; format: biochemical; design: purchased Chisso Corporation; details: for Half decay time sec.: semi-synthetic aequorin, time to reach half of the maximum luminescence intensity
Experimental: The dilution was dispensed into a 96-well microplate (Nunc #236108) in 5 μl/well. […] The luminescence patterns for 60 seconds were measured to determine the half decay time of luminescence (time period to reach the half of the maximum luminescence intensity).

recombinant apoaequorin [4] = biological target: T2, recombinant apoaequorin; test: Production of semi-synthetic aequorins and measurement of luminescence activity (Imax, luminescence capacity); details: regeneration 0.5 to 18 hours at 4° C.
Experimental: In order to confirm the regeneration time and regeneration efficiency from apoaequorin to the semi-synthetic aequorin, the luminescence activity was assayed at the respective points of the regeneration process (at the respective points of 0.5, 1, 1.5, 2, 3 and 18 hours from the start of regeneration).
Specifically, the luminescence activity described above was measured as follows. The luminescence reaction was started by adding 100 μl of 50 mM Tris-HCl (pH 7.6) containing 50 mM calcium chloride solution to 2 μl of a solution of the semi-synthetic aequorin at each regeneration process. The luminescence activity was measured for 10 seconds with a luminometer Luminescencer-PSN AB2200 (manufactured by Atto Co., Ltd.). The measured values were represented as the maximum intensity (Imax) of luminescence. The emission for 60 seconds was integrated, which was made a luminescence capacity.

recombinant apoaequorin [5] = biological target: T2, recombinant apoaequorin; test: Emission spectra of semi-synthetic aequorins by addition of calcium ions; details: for Emission spectra of semi-synthetic aequorins compared with known analogs (FIG. 3): compared to h-CTZ and i-CTZ; for Maximum emission wavelength λmax (nm): semi-synthetic aequorin, 22 to 25° C.
Experimental: In a quartz cell with an optical path length of 10 mm, 1 ml of 50 mM Tris-HCl (pH 7.6) containing 1 mM EDTA and 100 μl (100 μg protein) of a solution of the regenerated semi-synthetic aequorin were charged and they were mixed. Subsequently, 100 μl of 50 mM Tris-HCl (pH 7.6) containing 0.1 ml of 10 mM calcium chloride solution was added to the mixture to trigger the luminescence reaction. The spectra were measured on a spectrofluorimeter (FP-6500, manufactured by JASCO Corporation) with the excitation source turned off. The measurement conditions used were as follows: band width, 20 nm; response, 0.5 second and scan speed, 2000 nm/min at 22 to 25° C.

T2 sequence (P07164 other isoform, or with tags, fused parts or gaps with the stated changes): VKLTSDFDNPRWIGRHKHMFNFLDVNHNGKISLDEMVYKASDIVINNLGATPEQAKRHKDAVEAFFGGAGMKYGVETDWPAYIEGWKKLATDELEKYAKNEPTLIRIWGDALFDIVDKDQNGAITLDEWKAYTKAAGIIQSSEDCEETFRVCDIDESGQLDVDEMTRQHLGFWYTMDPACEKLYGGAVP
T3 sequence (Q9GV45 28-196): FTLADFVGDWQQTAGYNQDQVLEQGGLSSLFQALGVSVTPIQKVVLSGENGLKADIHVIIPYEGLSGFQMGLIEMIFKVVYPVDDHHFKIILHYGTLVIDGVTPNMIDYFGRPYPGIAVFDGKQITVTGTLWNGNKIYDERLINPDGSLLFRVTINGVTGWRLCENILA

SMILES	Maximum emission wavelength λmax (nm) (Renilla luciferase)	Luminescence activity Imax (%) (Renilla luciferase)	Luminescence capacity 10 secs. (%) (Renilla luciferase)	Ability to act as substrate for Renilla luciferase (Renilla luciferase)	Calcium standard curve with semi-synthetic aequorin (FIG. 4) (recombinant apoaequorin [1])	Maximum emission wavelength λmax (nm) [2] [nm]	Luminescence capacity 10 secs. (%) [2] [%]	Luminescence activity Imax (%) [2] [%]	Quality as luminescence substrate for Oplophorus luciferase [2]	Luminescence activity Imax (%) (Gaussia luciferase)	Luminescence capacity 10 secs. (%) (Gaussia luciferase)	Quality as luminescence substrate for Gaussia luciferase (Gaussia luciferase; TABLE 3)	melting point	Half decay time of luminescence compared with CTZ (recombinant apoaequorin [3]; semi-synthetic aequorin (FIG. 2, TABLE 1))	Half decay time sec. (recombinant apoaequorin [3]) [s]	Ability to act as luminescence substrate for semi-synthetic aequorins (FIG. 1) (recombinant apoaequorin [4])	Emission spectra of semi-synthetic aequorins compared with known analogs (FIG. 3) (recombinant apoaequorin [5])	Maximum emission wavelength λmax (nm) (recombinant apoaequorin [5])
Cc1ccc(Cc2nc3c(Cc4ccccc4)[nH]c(-c4ccc(O)cc4)cn-3c2=O)cc1 [me-CTZ, me-coelenterazine]	472.0	6.6	7.0	can be substrates for Renilla luciferase	calcium standard curves can be prepared	454.4	82.7	46.6	relatively good luminescence substrates	4.5	5.9	effective luminescence substrates	150 to 152 °C (dec.)	longer than CTZ	5.00	can be luminescence substrates for semi-synthetic aequorins	exhibit different emission spectra from those of known coelenterazine analogs	469.5
COc1ccc(Cc2nc3c(Cc4ccccc4)[nH]c(-c4ccc(O)cc4)cn-3c2=O)cc1 [meo-CTZ, meo-coelenterazine]	472.5	8.0	8.6	can be substrates for Renilla luciferase	calcium standard curves can be prepared	454.5	108.6	68.1	relatively good luminescence substrates	13.6	15.5		137 to 139 °C (dec.)		1.63	can be luminescence substrates for semi-synthetic aequorins	exhibit different emission spectra from those of known coelenterazine analogs	469.0
CC(c1ccccc1)c1nc2c(Cc3ccccc3)[nH]c(-c3ccc(O)cc3)cn-2c1=O (centres unmarked) [αmeh-CTZ, αmeh-coelenterazine]		0.0	0.0		calcium standard curves can be prepared	457.0	19.0	15.6	relatively good luminescence substrates	>0.01	>0.01		143 to 145 °C (dec.)		0.35	can be luminescence substrates for semi-synthetic aequorins		467.5

— patent publication US9645128B2, “Substituted imidazo[1,2-A]pyrazines for measuring a transcription activity” (JNC CORPORATION, priority 2009, dated 2017)
